From patent US10633338B2, “Binding Function 3 (BF3) site compounds as therapeutics and methods for their use” (THE UNIVERSITY OF BRITISH COLUMBIA, priority 2014, dated 2020)
Like-named read-outs stand apart in the source and are kept apart here.

Experiments:
androgen receptor (AR) = target: T1, androgen receptor (AR) (Homo sapiens, UniProt P10275, T878A); assay: eGFP cellular AR transcription assay; type: cell-based; conditions: 0.1 nM R1881, 3 days incubation
T1 construct: stably transfected eGFP-expressing LNCaP human prostate cancer cells (LN-ARR2PB-eGFP) containing an androgen responsive probasin-derived promoter; endogenous in cells; host or cells: LNCaP (LN-ARR2PB-eGFP)
T1 sequence (P10275 1-920 T878A): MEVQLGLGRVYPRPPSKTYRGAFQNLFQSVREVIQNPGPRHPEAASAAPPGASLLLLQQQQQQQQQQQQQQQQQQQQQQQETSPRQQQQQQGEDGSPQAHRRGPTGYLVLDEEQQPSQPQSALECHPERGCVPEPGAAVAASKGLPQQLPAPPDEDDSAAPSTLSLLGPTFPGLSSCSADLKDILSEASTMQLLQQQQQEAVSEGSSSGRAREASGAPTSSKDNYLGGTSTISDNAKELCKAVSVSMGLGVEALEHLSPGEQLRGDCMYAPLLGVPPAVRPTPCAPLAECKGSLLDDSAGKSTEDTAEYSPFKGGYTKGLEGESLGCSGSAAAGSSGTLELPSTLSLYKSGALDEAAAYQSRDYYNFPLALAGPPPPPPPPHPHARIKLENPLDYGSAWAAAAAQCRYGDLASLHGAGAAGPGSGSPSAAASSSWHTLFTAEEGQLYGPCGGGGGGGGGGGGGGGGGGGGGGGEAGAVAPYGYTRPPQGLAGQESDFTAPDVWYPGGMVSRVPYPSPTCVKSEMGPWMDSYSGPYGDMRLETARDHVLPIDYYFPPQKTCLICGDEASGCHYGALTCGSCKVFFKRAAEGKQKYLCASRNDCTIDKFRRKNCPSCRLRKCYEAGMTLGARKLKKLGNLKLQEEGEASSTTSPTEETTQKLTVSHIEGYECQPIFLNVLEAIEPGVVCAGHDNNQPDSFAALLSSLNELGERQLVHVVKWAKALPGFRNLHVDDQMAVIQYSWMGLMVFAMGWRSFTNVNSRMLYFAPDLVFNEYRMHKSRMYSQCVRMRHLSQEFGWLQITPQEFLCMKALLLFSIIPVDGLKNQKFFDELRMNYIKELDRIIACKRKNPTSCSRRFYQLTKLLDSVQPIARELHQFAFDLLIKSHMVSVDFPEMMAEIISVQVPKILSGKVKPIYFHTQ
How it was run: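 AR transcriptional activity is read as eGFP expression from a probasin-derived androgen-responsive promoter. Compound titrated 0-100 μM in the presence of 0.1 nM R1881; 35,000 cells/well.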

PSA = assay: Prostate Surface Antigen (PSA) assay, PSA excreted into the media; type: cell-based, human; conditions: PSA excreted into media, same plates as eGFP assay, 3 days incubation; for IC50: read-out: PSA IC50
Protocol: The evaluation of PSA excreted into the media was performed in parallel to the eGFP assay using the same plates (see above description). After the cells were incubated for 3 days 150 μl of the media was taken from each well, and added to 150 μl of PBS.

[1] = LN-ARR2PBeGFP LNCaP cells, read-out: eGFP IC50

| SMILES | IC50 (androgen receptor (AR); [1]) [µM] | IC50 (PSA; Homo sapiens, 72 h) [µM] | further results |
| --- | --- | --- | --- |
| CC1(C)c2cc(Br)ccc2NC1c1c[nH]c2ccc([N+](=O)[O-])cc12 (centres unmarked) [Compound 13530] | 4.7 | 1.6 |  |
| CCOC(=O)CN1c2ccccc2C(C)(C)C1c1c[nH]c2ccccc12 (centres unmarked) [Compound 13532] | 2.8 | 3.1 |  |
| c1ccc2c(c1)NC(c1c[nH]c3ccccc13)C21CCCCC1 (centres unmarked) [Compound 13534] | 0.8 | 1.25 |  |
| Cc1ccc2[nH]cc(C3Nc4ccccc4C3(C)C)c2c1 (centres unmarked) [Compound 13535] | 1.5 | 1.87 |  |
| COc1ccc2[nH]cc(C3Nc4ccccc4C3(C)C)c2c1 (centres unmarked) [Compound 13536] | 2.2 | 2.52 |  |
| CC1(C)C(c2c[nH]c3ncccc23)=Nc2ccccc21 [Compound 13537] | 0.7 | 0.806 |  |
| CC1(C)C(c2c[nH]c3c(O)cccc23)=Nc2ccccc21 [Compound 13541] | 0.5 | 0.94 |  |
| CC1(C)c2ccc(Br)cc2NC1c1c[nH]c2c(OCc3ccccc3)cccc12 (centres unmarked) [Compound 13543] | 3.7 | 3.19 |  |
| Cc1ccc2[nH]cc(C3Nc4ccccc4C34CCCCC4)c2c1 (centres unmarked) [Compound 13548] | 3.21 | 4.24 |  |
| Cc1cccc2c(C3Nc4ccccc4C34CCCCC4)c[nH]c12 (centres unmarked) [Compound 13549] | 1.7 | 2.57 |  |
| Oc1cccc2c(C3Nc4ccccc4C34CCCCC4)c[nH]c12 (centres unmarked) [Compound 13552] | 1.13 | 1.14 |  |
| COc1cccc2c(-c3cc(C)c4ccccc4n3)c[nH]c12 [Compound 13554] | 0.59 | 0.67 |  |
| CC1(C)c2ccccc2NC1c1c[nH]c2ncccc12 (centres unmarked) [Compound 13556] | 2.11 |  | IC50 (PSA): 2.18 µM |
| CC1(C)c2ccccc2NC1c1c[nH]c2c(CO)cccc12 (centres unmarked) [Compound 13558] | 1.6 | 2.1 |  |
| CC1(C)c2ccccc2NC1c1c[nH]c2ncccc12 (centres unmarked) [Compound 13560] | 2.3 |  | IC50 (PSA): 7.5 µM |
| c1ccc2nc(-c3c[nH]c4ccccc34)ccc2c1 [Compound 13562] | 0.06 | 0.14 |  |
| CCc1cccc2c(-c3ccc4ccccc4n3)c[nH]c12 [Compound 13567] | 0.2 | 0.23 |  |
| Brc1ccc2c(-c3ccc4ccccc4n3)c[nH]c2c1 [Compound 13568] | 1.3 | 1.56 |  |
| Fc1ccc2c(-c3ccc4ccccc4n3)c[nH]c2c1 [Compound 13576] | 0.144 | 0.048 |  |
| Cc1ccc2[nH]cc(-c3ccc4ccccc4n3)c2c1 [Compound 13577] | 3.2 | 1.73 |  |
| c1ccc2nc(-c3n[nH]c4ccccc34)ccc2c1 [Compound 13579] |  | 0.043 | IC50 (androgen receptor (AR); eGFP IC50, LN-ARR2PBeGFP LNCaP cells): 0.101 µM |
| Brc1cccc2c(-c3ccc4ccccc4n3)c[nH]c12 [Compound 13582] | 0.052 | 0.041 |  |
| Cc1cccc2c(-c3cnc4ccccc4n3)c[nH]c12 [Compound 13585] | 0.11 | 0.039 |  |
| c1ccc2nc(-c3c[nH]c4ccccc34)ncc2c1 [Compound 13587] | 0.76 | 0.53 |  |
| Cc1cccc2c(-c3ccc4ccccc4c3)c[nH]c12 [Compound 13591] | 0.042 | 0.085 |  |

| SMILES | IC50 (androgen receptor (AR); [1]) [µM] | IC50 (PSA; Homo sapiens, 72 h) [µM] | further results |
| --- | --- | --- | --- |
| Cc1cc(-c2c[nH]c3c(C)cccc23)nc2ccccc12 [Compound 13594] | 0.166 | 0.099 |  |
| Cc1cc2ccccc2nc1-c1c[nH]c2c(C)cccc12 [Compound 13596] |  |  | eGFP IC50 (androgen receptor (AR); LN-ARR2PBeGFP LNCaP cells): Inactive; PSA IC50 (PSA): Inactive |
| Cc1cccc2c(-c3ccc4c(C#N)cccc4n3)c[nH]c12 [Compound 13598] |  |  | eGFP IC50 (androgen receptor (AR); LN-ARR2PBeGFP LNCaP cells): Inactive; PSA IC50 (PSA): Inactive |
| Cc1cc(C)c2[nH]cc(-c3ccc4cc(F)ccc4n3)c2c1 [Compound 13599] |  |  | eGFP IC50 (androgen receptor (AR); LN-ARR2PBeGFP LNCaP cells): Inactive; PSA IC50 (PSA): Inactive |
| Cc1ccc(C)c2c(-c3ccc4ccccc4n3)c[nH]c12 [Compound 13600] | 1.25 | 0.929 |  |
| Cc1cccc2c(-c3ncc4ccccc4n3)c[nH]c12 [Compound 13603] | 0.633 | 0.339 |  |
| Cc1cccc2c(C3=Nc4ccccc4CN3)c[nH]c12 [Compound 13604] |  |  | eGFP IC50 (androgen receptor (AR); LN-ARR2PBeGFP LNCaP cells): Inactive; PSA IC50 (PSA): Inactive |
| Cc1cccc2c(-c3ccc4c(Cl)cccc4n3)c[nH]c12 [Compound 13605] |  |  | eGFP IC50 (androgen receptor (AR); LN-ARR2PBeGFP LNCaP cells): Inactive; PSA IC50 (PSA): Inactive |
| Cc1cc(C)c2[nH]cc(-c3ccc4c(C#N)cccc4n3)c2c1 [Compound 13608] |  |  | eGFP IC50 (androgen receptor (AR); LN-ARR2PBeGFP LNCaP cells): Inactive; PSA IC50 (PSA): Inactive |
| Cc1c(F)ccc2c(-c3ccc4c(C#N)cccc4n3)c[nH]c12 [Compound 13609] |  |  | eGFP IC50 (androgen receptor (AR); LN-ARR2PBeGFP LNCaP cells): Inactive; PSA IC50 (PSA): Inactive |
| Cc1cc(F)c2[nH]cc(-c3ccc4ccccc4n3)c2c1 [Compound 13612] | 1.44 | 0.813 |  |
| Fc1c(Cl)ccc2c(-c3ccc4ccccc4n3)c[nH]c12 [Compound 13613] | 11.5 | 1.74 |  |
| Fc1ccc2nc(-c3c[nH]c4cc(F)c(F)cc34)ccc2c1 [Compound 13614] | 1.12 | 0.597 |  |
| CNC(=O)c1cccc2nc(-c3c[nH]c4c(C)c(F)ccc34)ccc12 [Compound 13615] |  |  | eGFP IC50 (androgen receptor (AR); LN-ARR2PBeGFP LNCaP cells): Inactive; PSA IC50 (PSA): Inactive |
| Cc1cccc2nc(-c3c[nH]c4c(C)c(F)ccc34)ccc12 [Compound 13616] |  |  | eGFP IC50 (androgen receptor (AR); LN-ARR2PBeGFP LNCaP cells): Inactive; PSA IC50 (PSA): Inactive |
| Fc1ccc2c(-c3ccc4c(C(F)(F)F)cccc4n3)c[nH]c2c1F [Compound 13617] |  |  | eGFP IC50 (androgen receptor (AR); LN-ARR2PBeGFP LNCaP cells): Inactive; PSA IC50 (PSA): Inactive |
| Cc1cccc2c(-c3ccc4c(O)cccc4n3)c[nH]c12 [Compound 13620] |  |  | eGFP IC50 (androgen receptor (AR); LN-ARR2PBeGFP LNCaP cells): Inactive; PSA IC50 (PSA): Inactive |
| Brc1cccc2c(-c3ccc4ccccc4n3)c[nH]c12 [Compound 13621] | 0.02 | 0.008 |  |
| Cc1cccc2c(-c3ccc4c(F)cccc4n3)c[nH]c12 [Compound 13623] |  |  | eGFP IC50 (androgen receptor (AR); LN-ARR2PBeGFP LNCaP cells): Inactive; PSA IC50 (PSA): Inactive |
| Cc1cc(Cl)cc2c(-c3ccc4ccccc4n3)c[nH]c12 [Compound 13626] | 2.7 | 1.65 |  |
| c1ccc2ncc(-c3c[nH]c4ccccc34)cc2c1 [Compound 13628] | 0.8 | 0.61 |  |
| Oc1cc2ccccc2nc1-c1c[nH]c2cc(F)c(F)cc12 [Compound 13629] | 4.9 | 1.78 |  |
| Fc1ccc2ccc(-c3c[nH]c4cc(F)c(F)cc34)nc2c1 [Compound 13630] | 0.6 | 0.43 |  |
| Cc1c(F)ccc2c(-c3ccc4c(F)cccc4n3)c[nH]c12 [Compound 13631] |  |  | eGFP IC50 (androgen receptor (AR); LN-ARR2PBeGFP LNCaP cells): Inactive; PSA IC50 (PSA): Inactive |
